The text below walks through data of ChEMBL document CHEMBL1132665, “Casein kinase II inhibitors isolated from two Brazilian plants Hymenaea parvifolia and Wulffia baccata” (Bioorg Med Chem Lett, 1999).

The target in test [1] is T1, Casein kinase II (Homo sapiens) (UniProt P67870+P68400+P19784). Kind of test: Inhibition of CK-II-mediated 60S acidic ribosomal P protein activity at 10 uM. The class given is functional.
The target in test [2] is T1, Casein kinase II (Homo sapiens). Briefly: In vitro inhibitory activity against casein kinase II was determined. The class given is protein-complex assay.

Regarding `C/C=C(/C)C(=O)O[C@@H]1CC(C)(C)CC2C3=CC[C@@H]4[C@]56CC[C@@](O)(OC5)C(C)(C)[C@@H]6CC[C@@]4(C)[C@]3(C)CC[C@]21C(=O)O` (stereo partly specified), in test [1], the Activity result is “Dose-dependent effect”.

In the case of `C[C@@H]1CC[C@]2(C(=O)O)CC[C@]3(C)C(=CC[C@@H]4[C@]56CC[C@@](O)(OC5)C(C)(C)[C@@H]6CC[C@]43C)C2[C@H]1C` (stereo partly specified), the Activity result in test [1] is “Dose-dependent effect”.

With `C[C@H]1OC(O[C@H]2C(=O)c3c(O)cc(O)cc3O[C@@H]2c2ccc(O)c(O)c2)[C@H](O)[C@H](O)[C@@H]1O` (stereo partly specified), the Activity entry in test [1] was “Dose-dependent effect”. The molecule also yielded an ID50 in test [2] of 9 µM.

Turning to `C[C@H]1OC(O[C@@H]2C(=O)c3c(O)cc(O)cc3O[C@H]2c2ccc(O)c(O)c2)[C@H](O)[C@H](O)[C@@H]1O` (stereo partly specified), the Activity result in test [1] is “Dose-dependent effect”. Besides, the ID50 in test [2] worked out at 7 µM.
